{"source": "patent US20260055083A1", "about": "“APOL1 INHIBITORS AND METHODS OF USE” (Maze Therapeutics, Inc., priority 2022, published 2026)", "key": {"APOL1 G2 [1]": {"biological_target": "T1, APOL1 G2 (Homo sapiens, UniProt O14791, DEL388-389)", "T1 construct": "expressed in transfected cells; host or cells: HEK293/T-REx APOL1 G2 clone #2, doxycycline-inducible", "T1 sequence (O14791 with tags, fused parts or gaps DEL388-389)": "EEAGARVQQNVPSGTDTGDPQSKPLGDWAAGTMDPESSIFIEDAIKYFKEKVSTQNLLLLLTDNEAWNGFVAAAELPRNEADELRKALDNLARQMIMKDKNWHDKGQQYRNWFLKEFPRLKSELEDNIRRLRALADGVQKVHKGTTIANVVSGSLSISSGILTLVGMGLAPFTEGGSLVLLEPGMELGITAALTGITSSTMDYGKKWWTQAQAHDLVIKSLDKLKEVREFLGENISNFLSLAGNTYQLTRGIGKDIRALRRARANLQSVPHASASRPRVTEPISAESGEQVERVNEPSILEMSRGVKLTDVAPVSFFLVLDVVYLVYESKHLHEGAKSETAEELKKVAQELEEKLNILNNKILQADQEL", "experiment": "APOL1 G2 HEK293 rescue of cell death caused by overexpression of APOL1 (CellTiter-Glo)", "format": "cell-based", "conditions": "HEK293/T-REx APOL1 G2 clone #2, doxycycline induction, 17 hours, CellTiter-Glo luminescence; reversal of cell death; geometric mean of at least 2 assay runs", "procedure,_shortened": "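Doxycycline (6 ng/mL)-induced HEK293/T-REx APOL1 G2 clone seeded at 5,000 cells/well with compound in duplicate 8-point 3-fold series (0.5% DMSO), 17 h at 37 °C. CellTiter-Glo luminescence; EC50 from four-parameter logistic fit, geometric mean of ≥2 runs.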"}, "APOL1 G2 [2]": {"biological_target": "T1, APOL1 G2", "experiment": "APOL1 G2 FLIPR calcium influx assay (HEK T-REx/GCaMP6f/APOL1 G2 K6.3 cells)", "format": "cell-based", "conditions": "HEK293 clone expressing GCaMP6f, doxycycline-induced APOL1 G2; prevention of calcium influx; geometric mean of at least 2 assay runs", "procedure,_shortened": "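HEK293 clone stably expressing GCaMP6f, APOL1 G2 induced with doxycycline for 6 h; compounds (duplicate 8-point dose response) preincubated 10 min at room temperature in Ca2+-free Tyrode's buffer, pH 7.4. Ca2+ added to 5 mM final, influx read on FLIPR; AC50 is geometric mean of ≥2 runs.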"}}}
{"smiles": "C[C@@H]1CN(CCc2cc(Cl)cc(C#N)c2)C[C@H]1COc1ccc(C2(S(C)(=O)=O)CC2)cc1", "note": "[Compound 77, 3-chloro-5-{2-[(3S,4S)-3-{[4-(1-methanesulfonylcyclopropyl)phenoxy]methyl}-4-methylpyrrolidin-1-yl]ethyl}benzonitrile]", "values": [{"measurement": "EC50", "setting": "APOL1 G2 [1]", "result": 176, "unit": "nM"}, {"measurement": "AC50", "setting": "APOL1 G2 [2]", "result": 189, "unit": "nM"}]}
{"smiles": "C[C@@H]1CN(C(CO)Cc2cc(Cl)cc(C#N)c2)C[C@H]1COc1ccc(S(C)(=O)=O)cc1", "note": "(single isomer, unassigned) [Compound 121, 3-chloro-5-[(2R or 2S)-3-hydroxy-2-[(3S,4S)-3-[(4-methanesulfonylphenoxy)methyl]-4-methylpyrrolidin-1-yl]propyl]benzonitrile]", "values": [{"measurement": "EC50", "setting": "APOL1 G2 [1]", "result": "> 10000", "unit": "nM"}, {"measurement": "AC50", "setting": "APOL1 G2 [2]", "result": 1110, "unit": "nM"}]}
{"smiles": "C[C@@H]1C[C@H](COc2ccc(S(=O)(=O)CCS(C)(=O)=O)cc2)CN1C1CCc2ccc(C#N)cc2C1", "note": "(single isomer, unassigned) [Compound 33, 7S or 7R)-7-[(2R,4S)-4-{[4-(2-methanesulfonylethanesulfonyl)phenoxy]methyl}-2-methylpyrrolidin-1-yl]-5,6,7,8-tetrahydronaphthalene-2-carbonitrile]", "values": [{"measurement": "EC50", "setting": "APOL1 G2 [1]", "result": 133, "unit": "nM"}, {"measurement": "AC50", "setting": "APOL1 G2 [2]", "result": 662, "unit": "nM"}]}
{"smiles": "CC(Cc1cc(Cl)cc(C#N)c1)N1C[C@@H](COc2ccc(S(C)(=O)=O)cc2)C[C@H]1C", "note": "(single isomer, unassigned) [Compound 11, 3-chloro-5-[(2R or 2S)-2-[(2R,4S)-4-[(4-methanesulfonylphenoxy)methyl]-2-methylpyrrolidin-1-yl]propyl]benzonitrile]", "values": [{"measurement": "EC50", "setting": "APOL1 G2 [1]", "result": 137, "unit": "nM"}, {"measurement": "AC50", "setting": "APOL1 G2 [2]", "result": 1130, "unit": "nM"}]}
{"smiles": "C[C@@H]1C[C@H](COc2ccc(S(C)(=O)=O)nc2)CN1CC(O)c1cccc(C#N)c1", "note": "(single isomer, unassigned) [Compound 94, 3-[(1S or 1R)-1-hydroxy-2-[(2R,4S)-4-{[(6-methanesulfonylpyridin-3-yl)oxy]methyl}-2-methylpyrrolidin-1-yl]ethyl]benzonitrile]", "values": [{"measurement": "EC50", "setting": "APOL1 G2 [1]", "result": 103, "unit": "nM"}, {"measurement": "AC50", "setting": "APOL1 G2 [2]", "result": 614, "unit": "nM"}]}
{"smiles": "CC(c1ccc(OC[C@@H]2CN(CCc3cccc(Cl)c3)CCN2)cc1)S(C)(=O)=O", "note": "(single isomer, unassigned) [Compound 142, (3S)-1-[2-(3-chlorophenyl)ethyl]-3-({4-[(1S) or (1R)-1-methanesulfonylethyl]phenoxy}methyl)piperazine]", "values": [{"measurement": "EC50", "setting": "APOL1 G2 [1]", "result": 231, "unit": "nM"}, {"measurement": "AC50", "setting": "APOL1 G2 [2]", "result": 703, "unit": "nM"}]}
{"smiles": "CS(=O)(=O)c1ccc(OC[C@@H]2CN(C(CO)Cc3cccc(Cl)c3)CCN2)cc1", "note": "(single isomer, unassigned) [Compound 119, (2S or 2R)-3-(3-chlorophenyl)-2-[(3S)-3-[(4-methanesulfonylphenoxy)methyl]piperazin-1-yl]propan-1-ol]", "values": [{"measurement": "EC50", "setting": "APOL1 G2 [1]", "result": 633, "unit": "nM"}, {"measurement": "AC50", "setting": "APOL1 G2 [2]", "result": 2330, "unit": "nM"}]}
{"smiles": "C[C@@H]1C[C@H](COc2ccc(S(=O)(=O)CCS(C)(=O)=O)cc2)CN1C1CCc2c(C#N)cc(Cl)cc2C1", "note": "(single isomer, unassigned) [Compound 47, (6S or 6R)-3-chloro-6-[(2R,4S)-4-{[4-(2-methanesulfonylethanesulfonyl)phenoxy]methyl}-2-methylpyrrolidin-1-yl]-5,6,7,8-tetrahydronaphthalene-1-carbonitrile]", "values": [{"measurement": "EC50", "setting": "APOL1 G2 [1]", "result": "> 3340", "unit": "nM"}, {"measurement": "AC50", "setting": "APOL1 G2 [2]", "result": 926, "unit": "nM"}]}
{"smiles": "CC(=O)N1CC(S(=O)(=O)c2ccc(OC[C@@H]3CN(CCc4cccc(Cl)c4)CCN3)cc2)C1", "note": "[Compound 109, 1-[3-(4-{[(2S)-4-[2-(3-chlorophenyl)ethyl]piperazin-2-yl]methoxy}benzenesulfonyl)azetidin-1-yl]ethan-1-one]", "values": [{"measurement": "EC50", "setting": "APOL1 G2 [1]", "result": 224, "unit": "nM"}, {"measurement": "AC50", "setting": "APOL1 G2 [2]", "result": 746, "unit": "nM"}]}
{"smiles": "C[C@@H]1CN(C2CCc3ccc(Cl)cc3C2)C[C@H]1COc1ccc(S(C)(=O)=O)cc1", "note": "(single isomer, unassigned) [Compound 16, (3S,4S)-1-[(2R or 2S)-7-chloro-1,2,3,4-tetrahydronaphthalen-2-yl]-3-[(4-methanesulfonylphenoxy)methyl]-4-methylpyrrolidine]", "values": [{"measurement": "EC50", "setting": "APOL1 G2 [1]", "result": 712, "unit": "nM"}, {"measurement": "AC50", "setting": "APOL1 G2 [2]", "result": 1080, "unit": "nM"}]}
{"smiles": "Cc1cc(OC[C@H]2C[C@@H](C)N(CC(O)c3cccc(C#N)c3)C2)cnc1S(C)(=O)=O", "note": "(single isomer, unassigned) [Compound 96, 3-[(1S or 1R)-1-hydroxy-2-[(2R,4S)-4-{[(6-methanesulfonyl-5-methylpyridin-3-yl)oxy]methyl}-2-methylpyrrolidin-1-yl]ethyl]benzonitrile]", "values": [{"measurement": "EC50", "setting": "APOL1 G2 [1]", "result": 27.7, "unit": "nM"}, {"measurement": "AC50", "setting": "APOL1 G2 [2]", "result": 188, "unit": "nM"}]}
{"smiles": "CC(C(O)c1cc(Cl)cc(C#N)c1)N1C[C@@H](COc2ccc(S(C)(=O)=O)cc2)[C@H](C)C1", "note": "(single isomer, unassigned) [Compound 100, 3-chloro-5-((1R,2S or 1S,2R)-1-hydroxy-2-((3S,4S)-3-methyl-4-((4-(methylsulfonyl)phenoxy)methyl)pyrrolidin-1-yl)propyl)benzonitrile]", "values": [{"measurement": "EC50", "setting": "APOL1 G2 [1]", "result": 948, "unit": "nM"}, {"measurement": "AC50", "setting": "APOL1 G2 [2]", "result": 575, "unit": "nM"}]}
{"smiles": "C[C@@H]1C[C@H](COc2ccc(S(=O)(=O)CCCS(C)(=O)=O)cc2)CN1C1CCc2ccc(Cl)cc2C1", "note": "(stereo partly drawn) [Compound 52, (2R,4S)-1-[7-chloro-1,2,3,4-tetrahydronaphthalen-2-yl]-4-{[4-(3-methanesulfonylpropanesulfonyl)phenoxy]methyl}-2-methylpyrrolidine]", "values": [{"measurement": "EC50", "setting": "APOL1 G2 [1]", "result": 86.9, "unit": "nM"}, {"measurement": "AC50", "setting": "APOL1 G2 [2]", "result": 1020, "unit": "nM"}]}
{"smiles": "C[C@@H]1CN(C(CO)Cc2cccc(Cl)c2)C[C@H]1COc1ccc(S(C)(=O)=O)cc1", "note": "(stereo partly drawn) [Compound 115, 3-(3-chlorophenyl)-2-[(3S,4S)-3-[(4-methanesulfonylphenoxy)methyl]-4-methylpyrrolidin-1-yl]propan-1-ol]", "values": [{"measurement": "EC50", "setting": "APOL1 G2 [1]", "result": 1830, "unit": "nM"}, {"measurement": "AC50", "setting": "APOL1 G2 [2]", "result": 470, "unit": "nM"}]}
{"smiles": "C[C@@H]1C[C@H](COc2ccc(S(C)(=O)=O)cc2)CN1C1CCc2ccc(Cl)cc2C1", "note": "(single isomer, unassigned) [Compound 6, (2R,4S)-1-[(2R or 2S)-7-chloro-1,2,3,4-tetrahydronaphthalen-2-yl]-4-[(4-methanesulfonylphenoxy)methyl]-2-methylpyrrolidine]", "values": [{"measurement": "EC50", "setting": "APOL1 G2 [1]", "result": 661, "unit": "nM"}, {"measurement": "AC50", "setting": "APOL1 G2 [2]", "result": 839, "unit": "nM"}]}
{"smiles": "CS(=O)(=O)c1ccc(OC[C@H]2CN(CCc3cccc(Cl)c3)C[C@@H]2CO)cc1", "note": "[Compound 22, [(3R,4R)-1-[2-(3-chlorophenyl)ethyl]-4-[(4-methanesulfonylphenoxy)methyl]pyrrolidin-3-yl]methanol]", "values": [{"measurement": "EC50", "setting": "APOL1 G2 [1]", "result": "> 18800", "unit": "nM"}, {"measurement": "AC50", "setting": "APOL1 G2 [2]", "result": 1560, "unit": "nM"}]}
{"smiles": "C[C@@H]1CN(CCc2cccc(C#N)c2)C[C@H]1COc1ccc(S(C)(=O)=NCCS(C)(=O)=O)cc1", "note": "(single isomer, unassigned) [Compound 69]", "values": [{"measurement": "EC50", "setting": "APOL1 G2 [1]", "result": 377, "unit": "nM"}, {"measurement": "AC50", "setting": "APOL1 G2 [2]", "result": 346, "unit": "nM"}]}
{"smiles": "C[C@@H]1CN(CCc2cccc(C#N)c2)C[C@H]1COc1ccc(S(C)(=O)=NCCS(C)(=O)=O)cc1", "note": "(single isomer, unassigned) [Compound 70]", "values": [{"measurement": "EC50", "setting": "APOL1 G2 [1]", "result": 342, "unit": "nM"}, {"measurement": "AC50", "setting": "APOL1 G2 [2]", "result": 236, "unit": "nM"}]}
{"smiles": "C[C@@H]1C[C@H](COc2ccc(S(=O)(=O)CCS(C)(=O)=O)cc2)CN1C1CCc2c(C#N)cc(Cl)cc2C1", "note": "(single isomer, unassigned) [Compound 48, (6R or 6S)-3-chloro-6-[(2R,4S)-4-{[4-(2-methanesulfonylethanesulfonyl)phenoxy]methyl}-2-methylpyrrolidin-1-yl]-5,6,7,8-tetrahydronaphthalene-1-carbonitrile]", "values": [{"measurement": "EC50", "setting": "APOL1 G2 [1]", "result": 398, "unit": "nM"}, {"measurement": "AC50", "setting": "APOL1 G2 [2]", "result": 1130, "unit": "nM"}]}
{"smiles": "CC(=O)N(C)CCS(=O)(=O)c1ccc(OC[C@H]2C[C@@H](C)N(CCc3cc(Cl)cc(C#N)c3)C2)cc1", "note": "[Compound 66, N-[2-(4-{[(3S,5R)-1-[2-(3-chloro-5-cyanophenyl)ethyl]-5-methylpyrrolidin-3-yl]methoxy}benzenesulfonyl)ethyl]-N-methylacetamide]", "values": [{"measurement": "EC50", "setting": "APOL1 G2 [1]", "result": 76.8, "unit": "nM"}, {"measurement": "AC50", "setting": "APOL1 G2 [2]", "result": 621, "unit": "nM"}]}
